The values that follow come from patent publication US20190117653A1, “SYSTEMS AND METHODS FOR TREATING BACTERIAL INFECTION” (priority 2016, published 2019).

What all share (type): cell-based
The subject of assay [1] is methicillin-resistant Staphylococcus aureus (MRSA) isolates nonsusceptible to daptomycin, linezolid or vancomycin. As to the kind of experiment: broth microdilution susceptibility of MRSA nonsusceptible to daptomycin, linezolid or vancomycin. The method, then:
Antibacterial susceptibility testing was conducted on a range of MRSA strains and isolates with varying susceptibilities to several recognized antistaphylococcal antibiotics. Susceptibility testing was performed by broth microdilution in accordance with the Clinical and Laboratory and Standards Institute (CLSI) guidelines. Minimum inhibitory concentrations (MICs) were based on CLSI criteria.

A further assay relates to S. aureus ATCC 29213. The experiment in a line: MIC with/without bovine pulmonary surfactant. The following applies: Staphylococcus aureus. The method, then:
(§1) Antibacterial susceptibility testing was measured by JMI Labs (North Liberty, Iowa, USA). […] These clinical isolates were collected from US (n=4), Mexico (n=2), and Italy (n=1). Susceptibility testing was performed by broth microdilution in accordance with the Clinical and Laboratory and Standards Institute (CLSI) guidelines M07-A10 (2015) and the standard operating procedures at JMI laboratories. Minimum inhibitory concentrations (MICS) were based on CLSI criteria (2015). There are no published breakpoints for iclaprim. E. coli, K. pneumoniae, M. catarrhalis, E. faecalis, and S. aureus were tested in cation-adjusted Mueller-Hinton broth (CA-MHB). S. pneumoniae were tested in CA-MHB supplemented with 2.5-5% lysed horse blood, and H. influenza were tested in Haemophilus test medium. Quality control and interpretation of results were performed in accordance with CLSI M100-S26 (2016) methods. QC ranges for iclaprim were those approved by CLSI and published in M100-S26 (2016). Iclaprim and comparator antibiotic MIC results were within the CLSI published ranges against E. coli ATCC 25922, E. faecalis ATCC 29212, E. faecalis ATCC 33186, H. influenzae ATCC 49247, K. pneumoniae ATCC 700603 (ESBL phenotype), S. aureus ATCC 29213, and S. pneumoniae ATCC 49619. Isolates were tested with MIC panels (ThermoFisher Scientific, Cleveland, Ohio, USA) of comparator antibiotics (daptomycin and levofloxacin).
(§2) Because bovine pulmonary surfactant can introduce cloudiness to the MIC testing media, antimicrobial growth inhibition was also evaluated using the colorimetric metabolic indicator resazurin (Camlab Ltd., Cambridge, UK). […] S. pneumoniae panels were omitted from resazurin analysis because the color change was obscured by the lysed horse blood present in the test medium. Growth inhibition was then evaluated as a visible color change from blue (no growth) to pink (robust growth) and recorded as a MIC1z value.
(§3) The MICs of iclaprim, levofloxacin, and daptomycin were determined against Gram-positive and Gram-negative isolates.
(§4) A new vial of bovine pulmonary surfactant (BPS; Survanta®; Abbott Laboratories, Columbus, Ohio) was utilized for each independent experiment. Each vial was mixed thoroughly and a 100 μL aliquot was spread on an agar plate, which was incubated overnight to confirm sterility. […] The concentration of surfactant was expressed in terms of percent volume of Survanta® suspension, which consisted of phospholipid (25 mg/mL) and surfactant proteins (<1 mg/mL) in 0.9% sodium chloride solution (Goerke, 1998). MICs of daptomycin were determined in CAMHB with the Ca^2+ content adjusted to 50 mg/L.

The subject of the next assay is E. faecalis ATCC 29212. As to the kind of experiment: MIC with/without bovine pulmonary surfactant. The following applies: Enterococcus faecalis. The method, then:
as §1, §2, §3, §4

The test system of another assay is E. faecalis ATCC 33186. The experiment in a line: MIC with/without bovine pulmonary surfactant. As to conditions: Enterococcus faecalis. As for the experimental part:
as §1, §2, §3, §4

Assay [2] concerns M. catarrhalis Clinical Isolate 893806. As to the kind of experiment: MIC with/without bovine pulmonary surfactant. As to conditions: Moraxella catarrhalis, 2.5% v/v BPS, read-out: MIC, Resazurin: +BPS. The method, then: as §1, §2, §3, §4
(The colour change of resazurin is a common sign of viable cells or microbes.)

For the next assay, the system named is E. coli ATCC 25922. The experiment in a line: MIC with/without bovine pulmonary surfactant. The following applies: Escherichia coli. The method, then: as §1, §2, §3, §4
For a further assay, the system named is H. influenzae ATCC 49247. As to the kind of experiment: MIC with/without bovine pulmonary surfactant. The following applies: Haemophilus influenzae. As for the experimental part: as §1, §2, §3, §4

≈ marks a conversion by molar mass, not a printed value. Like-named read-outs stand apart in the source and are kept apart here.

`COc1cc(Cc2cnc(N)nc2N)c2c(c1OC)OC(C1CC1)C=C2` (racemic) [Iclaprim]: the results for the “isolates with MIC≤1 μg/ml” value in assay [1] (MRSA nonsusceptible to daptomycin (5 of 7)), in assay [1] (MRSA nonsusceptible to linezolid (25 of 25)) and in assay [1] (MRSA nonsusceptible to vancomycin (18 of 27)) were 71.4%, 100% and 66.7%, respectively. For the same molecule, the MIC with S. aureus ATCC 29213 (ATCC29213, 2.5% v/v BPS, read-out: MIC, CLSI: +BPS) was 0.06 µg/mL (≈ 0.169 µM); in the assay on S. aureus ATCC 29213 (ATCC29213, 2.5% v/v BPS, read-out: MIC, Resazurin: +BPS), 0.06 µg/mL (≈ 0.169 µM); in the assay with S. aureus ATCC 29213 (ATCC29213, no BPS, read-out: MIC, CLSI) it was 0.06 µg/mL (≈ 0.169 µM); in the assay on S. aureus ATCC 29213 (ATCC29213, no BPS, read-out: MIC, Resazurin), 0.06 µg/mL (≈ 0.169 µM); in the assay on E. faecalis ATCC 29212 (ATCC29212, 2.5% v/v BPS, read-out: MIC, Resazurin: +BPS), not above 0.015 µg/mL; in the assay on E. faecalis ATCC 29212 (ATCC29212, no BPS, read-out: MIC, Resazurin) it was not above 0.015 µg/mL. The MIC is not above 0.015 µg/mL with E. faecalis ATCC 33186 (ATCC33186, 2.5% v/v BPS, read-out: MIC, Resazurin: +BPS); 0.03 µg/mL (≈ 0.0846 µM) in the assay on E. faecalis ATCC 33186 (ATCC33186, no BPS, read-out: MIC, Resazurin); 8 µg/mL (≈ 22.6 µM) in assay [2]; 0.5 µg/mL (≈ 1.41 µM) in the assay on E. coli ATCC 25922 (ATCC25922, 2.5% v/v BPS, read-out: MIC, CLSI: +BPS); 1 µg/mL (≈ 2.82 µM) in the assay on E. coli ATCC 25922 (ATCC25922, 2.5% v/v BPS, read-out: MIC, Resazurin: +BPS); 0.5 µg/mL (≈ 1.41 µM) in the assay on E. coli ATCC 25922 (ATCC25922, no BPS, read-out: MIC, CLSI). Moreover, the MIC was 1 µg/mL (≈ 2.82 µM) in the assay on E. coli ATCC 25922 (ATCC25922, no BPS, read-out: MIC, Resazurin); 0.25 µg/mL (≈ 0.705 µM) in the assay on H. influenzae ATCC 49247 (ATCC49247, 2.5% v/v BPS, read-out: MIC, Resazurin: +BPS); 0.25 µg/mL (≈ 0.705 µM) in the assay on H. influenzae ATCC 49247 (ATCC49247, no BPS, read-out: MIC, Resazurin).
